Results reported in PubChem BioAssay AID977628 (Broad Institute, 2014).
Results filed as inconclusive are left out. The source made the active and inactive calls.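 How the source made its calls: active means compound lowering the normal-ribosome reporter at least twice as much as the humanized-ribosome reporter, growth loss under a set limit; inconclusive means no clear call, values can overlap the other calls; inactive means the rest.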

Key:
[1] = test system: E. coli WT GFP strain growth, fluorescence, 24 h; experiment: growth of wild-type and h24-humanized E. coli strains – h24 mutant RFP vs wild-type GFP, cherry-pick, dose response (AID 977628)
[2] = test system: E. coli mixed WT/h24 culture total growth, OD600, 24 h; experiment: as above

SMILES	AC50 [1]	AC50 [2] [µM]
Brc1cc2c(cc1Br)OCCOCCOCCO2	> 100 µM (inactive)	> 100
O=C(CSc1nc2ccccc2[nH]1)Nc1cccc(S(=O)(=O)N2CCOCC2)c1	> 100 µM (inactive)	47.9
CCc1ccc(NC(=O)COC(=O)CCCC2=NS(=O)(=O)c3ccccc3N2)cc1	> 100 µM (inactive)	> 100
CSc1c(-c2ccccn2)c(N)nn1C(=O)C1CC1	> 100 µM (inactive)	> 100
CCCN(CC1CC1)C(=O)CSc1ncnc2sccc12	> 100 µM (inactive)	> 100
Cc1cccc(-c2ccc([C@H]3[C@H](CO)N4CCCCN(S(=O)(=O)c5ccccc5C)C[C@@H]34)cc2)c1	> 100 µM (inactive)	> 100
COc1ccc(C(=O)Nc2ccc3oc(Cc4ccc(Cl)cc4)nc3c2)cc1OC	> 100 µM (inactive)	> 100
COc1ccc(-c2nnn(CC(=O)N3CCN(c4ccccc4OC)CC3)n2)cc1OC	> 100 µM (inactive)	> 100
CC(C)Oc1cccc(C(=O)C2CCCN(Cc3ccc4nonc4c3)C2)c1 (configuration not stated)	> 100 µM (inactive)	36.8
O=S(=O)(Nc1ccc(-c2cnco2)cc1)c1ccccc1	> 100 µM (inactive)	> 100
CC(=O)Nc1ccc(-c2ccnc3c2CC(C)(C(=O)Nc2ccc4c(c2)OCO4)O3)cc1 (configuration not stated)	> 100 µM (inactive)	> 100
CC(CCc1ccccc1)NC(=O)CNC(=O)COc1ccccc1 (configuration not stated)	> 100 µM (inactive)	> 100
C=CCn1c(CCSCc2ccc(OC)c(C)c2)n[nH]c1=S	> 100 µM (inactive)	51.2
COc1cccc(OCCNS(=O)(=O)c2ccccc2[N+](=O)[O-])c1	> 100 µM (inactive)	> 100
O=C(CSc1ccc(-c2cccnc2)nn1)N1CCCc2ccccc21	> 100 µM (inactive)	> 100
COc1ccc(S(=O)(=O)Cc2ccc(C(=O)N3CCN(c4cc(Cl)ccc4C)CC3)o2)cc1	> 100 µM (inactive)	49.9
COCC#Cc1ccc2c(c1)O[C@@H](CN(C)S(=O)(=O)c1cccc(F)c1)[C@@H](C)CN([C@H](C)CO)S2(=O)=O	> 100 µM (inactive)	50
CCN(c1ccccc1)S(=O)(=O)c1ccc(OC)c(OC)c1	> 100 µM (inactive)	> 100
Cc1cc(C(=O)COC(=O)c2ccc(Br)o2)c(C)n1C	> 100 µM (inactive)	42.5
CN(C)C(=O)C1C2NC(=S)N(c3cccc(Cl)c3)C1(C)Oc1ccc(Cl)cc12 (configuration not stated)	> 100 µM (inactive)	> 100
O=C(CSCc1c(Cl)cccc1Cl)Nc1cccnc1	> 100 µM (inactive)	> 100
CCn1cc(Cl)c(C(=O)Nc2cccc(C(F)(F)F)c2)n1	> 100 µM (inactive)	> 100
COc1ccc(C2=Nc3ccccc3NC(=O)C2N(C(=O)c2ccnc3ccccc23)c2ccccc2)cc1 (configuration not stated)	> 100 µM (inactive)	43
CC(C)Cn1c(=O)c2ccccc2c2ccccc2c1=O	> 100 µM (inactive)	> 100
COc1ccc(-n2ccnc2SCC(=O)NCc2ccccc2)c(OC)c1	> 100 µM (inactive)	> 100
O=C(Nc1cccc(S(=O)(=O)N2CCCCC2)c1)c1ccc(Cl)nc1	> 100 µM (inactive)	> 100

SMILES	AC50 [1]	AC50 [2] [µM]
CCCn1c(=O)c2ccccc2n2c(SCCOc3ccc(OC)cc3)nnc12	> 100 µM (inactive)	> 100
C=CCn1c(-c2cc3cccc(OC)c3o2)n[nH]c1=S	> 100 µM (inactive)	> 100
Fc1ccc(-n2cc(CNCCc3cccnc3)c(-c3ccccc3Cl)n2)cc1	> 100 µM (inactive)	49.2
O=C(CCCn1c(=S)[nH]c2ccsc2c1=O)Nc1ccc2c(c1)OCCO2	> 100 µM (inactive)	46.7
O=C(NCc1ccc(S(=O)(=O)Nc2ccccc2Cl)s1)c1ccccc1	> 100 µM (inactive)	> 100
CN1c2ccc(C#Cc3cccnc3)cc2[C@@H]2[C@@H](CCN2C(=O)c2cccc(F)c2)[C@H]1CO	> 100 µM (inactive)	> 100
Nc1ncncc1-c1ccc(Cl)cc1	> 100 µM (inactive)	> 100
CN(CCOc1ccccc1)C(=O)c1ccc(OC2CCN(C(=O)C3CC3)CC2)cc1	> 100 µM (inactive)	> 100
COc1ccc(NS(=O)(=O)c2cccc3ccccc23)cc1	> 100 µM (inactive)	40.6
O=C(NCc1nnnn1-c1ccc(Cl)cc1)c1ccc([N+](=O)[O-])o1	> 100 µM (inactive)	> 100
Cc1ccc(C)c(-c2[nH]ncc2CN2CCCC(CO)(Cc3ccccc3C)C2)c1 (configuration not stated)	> 100 µM (inactive)	> 100
Cc1ccc(CNC(=O)c2ccc(Br)o2)cc1	> 100 µM (inactive)	> 100
Nc1[nH]c(C(=O)c2ccccc2)c(-c2ccc(Br)cc2)c1C(=O)c1cccs1	> 100 µM (inactive)	> 100
COc1ccc(OC)c(NC(=O)COC(=O)C2CCN(C(=O)c3ccc(Cl)cc3)CC2)c1	> 100 µM (inactive)	> 100
COc1cc(NC(=O)CSCc2ccc(Cl)cc2Cl)c(C(=O)O)cc1OC	> 100 µM (inactive)	> 100
CCN(CC(=O)Nc1cccc(C#N)c1)CC(=O)Nc1cccc(OC)c1	> 100 µM (inactive)	> 100
COc1cc(OC)cc(C(=O)Nc2ccc(S(=O)(=O)Nc3cnc4ccccc4n3)cc2)c1	> 100 µM (inactive)	42.2
CCCc1nc2oc3c(NCCCN(C)C)ncnc3c2c2c1CCCC2	> 100 µM (inactive)	> 100
NS(=O)(=O)c1cccc(NC(=O)CSc2nc3ccccc3n2-c2ccccc2)c1	> 100 µM (inactive)	38.1
O=C(Nc1ccc2c(c1)OCO2)c1cccc(S(=O)(=O)N2CCCC2)c1	> 100 µM (inactive)	> 100
N#CCC(=O)Nc1ccc(C(=O)OCC(=O)Nc2ccc3ccccc3c2)cc1	> 100 µM (inactive)	> 100
COc1ccc(NC(=O)CCS(=O)(=O)c2ccccc2Cl)cc1S(=O)(=O)Nc1ccc(Cl)cc1	> 100 µM (inactive)	> 100
O=C(CCc1ccccc1)Nc1sc2c(c1C(=O)O)CCCC2	> 100 µM (inactive)	52.3
Cc1cc(Cl)n2ncc(-c3ccccc3)c2n1	> 100 µM (inactive)	> 100
O=C(COc1ccc(Cl)cc1)Nc1ncc([N+](=O)[O-])s1	> 100 µM (inactive)	40.2
Cc1cc(C(N)=O)nn1-c1c(Cl)cc(Cl)cc1Cl	> 100 µM (inactive)	> 100

SMILES	AC50 [1]	AC50 [2] [µM]
CC1CCN(c2ccc3nnc(CCC(=O)Nc4cccc(F)c4)n3n2)CC1	> 100 µM (inactive)	> 100
CC(C)(C)C1CCC(OCC(O)CN2CCN(c3ccccn3)CC2)CC1 (configuration not stated)	> 100 µM (inactive)	41
COc1ccc(OC)c(C(=O)COC(=O)c2ccc([N+](=O)[O-])o2)c1	> 100 µM (inactive)	> 100
Cc1ccc(Oc2ccc(S(=O)(=O)N3CCOCC3)cc2C(N)=O)cc1C	> 100 µM (inactive)	> 100
COC(=O)c1c(C)oc(C)c1S(=O)(=O)NC(c1ccccc1)c1ccccc1	> 100 µM (inactive)	44.4
O=C(Nc1cccc(Cl)c1)N1C[C@@H]2[C@H](c3ccccc31)[C@@H](CO)N2CC1CCCCC1	> 100 µM (inactive)	41.9
CC(C)Oc1cccc(C(=O)C2CCCN(C(=O)c3cc(C(F)(F)F)[nH]n3)C2)c1 (configuration not stated)	> 100 µM (inactive)	51.3
Cc1cc(C)n(CC(O)COc2ccc3ccccc3c2)n1 (configuration not stated)	> 100 µM (inactive)	> 100
CCOC(=O)c1ccc(CC(=O)c2oc3cc(O)ccc3c2C)o1	> 100 µM (inactive)	> 100
Cc1ccccc1CSCC(=O)Nc1ccccc1F	> 100 µM (inactive)	> 100
CC(C)(C)c1ccc2c(c1)C(c1ccc3c(c1)OCO3)CC(=O)O2 (configuration not stated)	> 100 µM (inactive)	> 100
CC(=O)Nc1ccc(S(=O)(=O)Nc2cccc(-c3nc4cc(C)ccc4o3)c2)cc1	> 100 µM (inactive)	> 100
NC(=O)C1CCN(c2cc(Cl)ccc2[N+](=O)[O-])CC1	> 100 µM (inactive)	> 100
CCOC(=O)c1nc(C)sc1-c1ccnn1S(=O)(=O)c1cccc(Cl)c1	> 100 µM (inactive)	41.7
Cc1cccc(OCCC(=O)Nc2ccc(F)c(F)c2)c1	> 100 µM (inactive)	> 100
Cc1nnn(C23CC4CC(CC(CC(=O)Nc5ccc(C)c(C)c5)(C4)C2)C3)n1	> 100 µM (inactive)	> 100
COc1ccc(OC)c(-c2csc(NC(=O)C3COc4ccccc4O3)n2)c1 (configuration not stated)	> 100 µM (inactive)	> 100
CCOC(=O)C(CC)Sc1cc(C)nc2ccc(OC)cc12 (configuration not stated)	> 100 µM (inactive)	> 100
O=C(NCC(c1ccc(F)cc1)N1CCOCC1)c1ccc([N+](=O)[O-])o1 (configuration not stated)	> 100 µM (inactive)	> 100
C[C@@H]1CN([C@@H](C)CO)C(=O)c2cccc(NC(=O)Nc3ccccc3)c2O[C@@H]1CN(C)S(=O)(=O)c1ccc(Cl)cc1	> 100 µM (inactive)	49.6
COc1ccc(-c2ccccc2)cc1NC(=O)c1ccncc1	> 100 µM (inactive)	> 100
Cc1cc(NC(=O)CS(=O)(=O)c2cn(Cc3cccc(Br)c3)c3ccccc23)no1	> 100 µM (inactive)	40
COc1ccc(C(=O)Nc2ccc3nc(C)sc3c2)cc1OC	> 100 µM (inactive)	> 100
Cc1nn(-c2ccccc2)c(C)c1NC(=O)COc1ccc2ccccc2c1	> 100 µM (inactive)	42.8
